Consider three compounds from US20080153838A1, “Compounds Having Tie2 (Tek) Activity” (ASTRAZENECA AB, priority 2005, published 2008).

Usually IC50 stands for the midpoint of a concentration-inhibition curve.

Each structure is given as a SMILES string.

In experiment [1] the target is T1, Tie2 receptor tyrosine kinase (Homo sapiens, UniProt Q02763). The experiment can be described thus: In vitro receptor tyrosine kinase inhibition assay (ELISA, Test (a)). The format is biochemical. Details: consist of only the intracellular portion C-terminal portion of the respective receptor, within which is found the kinase domain; made in house; host or cells: baculovirus/Sf21 insect cells; cleared lysate used without purification. To be noted: recombinant human Tie2 kinase domain, peptide substrate. The procedure: a. In Vitro Receptor Tyrosine Kinase Inhibition Assay
To test for inhibition of Tie2 receptor tyrosine kinase, compounds are evaluated in a non-cell based protein kinase assay by their ability to inhibit the protein kinase enzyme phosphorylation of a tyrosine containing polypeptide substrate in an ELISA based microtitre plate assay. In this particular case, the assay was to determine the IC50, for three different recombinant human tyrosine kinases Tie2, KDR and Flt.
To facilitate production of the tyrosine kinases, recombinant receptor genes were produced using standard molecular biology cloning and mutagenesis techniques. These recombinant proteins fragments encoded within these genes consist of only the intracellular portion C-terminal portion of the respective receptor, within which is found the kinase domain. The recombinant genes encoding the kinase domain containing fragments were cloned and expressed in standard baculovirus/Sf21 system (or alternative equivalent). […]
Constitutive kinase activity of these recombinant proteins was determined by their ability to phosphorylate a synthetic peptide (made up of a random co-polymer of Glutamic Acid, Alanine and Tyrosine in the ratio of 6:3:1). […]
The immobilised phospho-peptide product of the reaction was detected by immunological methods. […] Following extensive washing with PBS-T, HRP activity in each well of the plate was measured […] using 22′-Azino-di-[3-ethylbenzthiazoline sulfonate (6)] diammonium salt crystals ABTS (Sigma P4922—prepared as per manufactures instructions) as a substrate incubated for 30-45 minutes to allow colour development, before 100 ul of 1M H2SO4 was added to stop the reaction.
Quantification of colour development and thus enzyme activity was achieved by the measurement of absorbance at 405 nm on a Molecular Devices ThermoMax microplate reader. Kinase inhibition for a given compound was expressed as an IC50 value. […] The range of phosphorylation was calculated from the positive (vehicle plus ATP) and negative (vehicle minus ATP) control values.
(In general: In an ELISA, binding on a coated surface is turned into a signal by an enzyme label.)
Target sequence in this assay (Q02763 770-1124 limits assumed): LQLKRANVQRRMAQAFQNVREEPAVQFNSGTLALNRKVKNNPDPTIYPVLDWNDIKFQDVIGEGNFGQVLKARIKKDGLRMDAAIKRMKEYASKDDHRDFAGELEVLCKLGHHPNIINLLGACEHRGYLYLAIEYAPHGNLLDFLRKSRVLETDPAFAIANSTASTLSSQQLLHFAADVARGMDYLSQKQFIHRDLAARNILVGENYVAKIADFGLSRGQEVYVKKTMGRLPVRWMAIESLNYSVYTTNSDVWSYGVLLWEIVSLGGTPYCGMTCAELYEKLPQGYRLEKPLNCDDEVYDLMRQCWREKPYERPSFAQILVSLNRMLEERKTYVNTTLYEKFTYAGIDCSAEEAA

The target in experiment [2] is T1, Tie2 receptor tyrosine kinase. The experiment in a line: Cellular Tie2 autophosphorylation assay (Test (b)). The class given is cell-based. Details: one can use natural cell lines or primary cells which are known to express the receptor of choice; endogenous in cells; host or cells: EA.hy926/B3 cells (HUVEC named as alternative). The note with it: Ang1 ligand stimulated whole cells (e.g. EA.hy926/B3); read-out: IC50 (μM) Test (b): Inhibition of autophosphorylation of Tie2 receptor tyrosine kinase. The text has this:
b. Cellular Tie2 Autophosphorylation Assay
This assay is based on measuring the ability of compounds to inhibit autophosphorylation of the Tie2 receptor which normally leads to the production of “activated” receptor that in turn initiates the particular signal transduction pathways associated with the receptor function.
Autophosphorylation can be achieved by a number of means. It is known that expression of recombinant kinase domains in baculoviral systems can lead to the production of phosphorylated and activated receptor. It is also reported that over expression of receptors in recombinant cell lines can itself lead to receptor autophosphorylation in the absence of the ligand (Heldin C-H. 1995 Cell: 80, 213-223; Blume-J. P, Hunter T. 2001 Nature: 411, 355-65). Furthermore, there are numerous literature examples in which chimaeric receptors have been constructed. In these cases the natural, external cell surface domain of the receptor has been replaced with that of a domain which is known to be readily dimerised via the addition of the appropriate ligand (e.g. TrkA-Tie2/NGF ligand (Marron, M. B., et al., 2000 Journal of Biological Chemistry: 275:39741-39746) or C-fms-Tie-1/CSF-1 ligand (Kontos, C. D., et al., 2002 Molecular and Cellular Biology: 22, 1704-1713). Thus when the chimaeric receptor expressed in a host cell line and the respective ligand is added, this induces autophosphorylation of the chimeric receptor's kinase domain. This approach has the advantage of often allowing a known (and often easily obtained) ligand to be used instead of having to identify and isolate the natural ligand for each receptor of interest.
Naturally if the ligand is available one can use natural cell lines or primary cells which are known to express the receptor of choice and simply stimulate with ligand to achieve ligand induced phosphorylation. […]
Target sequence in this assay (Q02763 23-1124): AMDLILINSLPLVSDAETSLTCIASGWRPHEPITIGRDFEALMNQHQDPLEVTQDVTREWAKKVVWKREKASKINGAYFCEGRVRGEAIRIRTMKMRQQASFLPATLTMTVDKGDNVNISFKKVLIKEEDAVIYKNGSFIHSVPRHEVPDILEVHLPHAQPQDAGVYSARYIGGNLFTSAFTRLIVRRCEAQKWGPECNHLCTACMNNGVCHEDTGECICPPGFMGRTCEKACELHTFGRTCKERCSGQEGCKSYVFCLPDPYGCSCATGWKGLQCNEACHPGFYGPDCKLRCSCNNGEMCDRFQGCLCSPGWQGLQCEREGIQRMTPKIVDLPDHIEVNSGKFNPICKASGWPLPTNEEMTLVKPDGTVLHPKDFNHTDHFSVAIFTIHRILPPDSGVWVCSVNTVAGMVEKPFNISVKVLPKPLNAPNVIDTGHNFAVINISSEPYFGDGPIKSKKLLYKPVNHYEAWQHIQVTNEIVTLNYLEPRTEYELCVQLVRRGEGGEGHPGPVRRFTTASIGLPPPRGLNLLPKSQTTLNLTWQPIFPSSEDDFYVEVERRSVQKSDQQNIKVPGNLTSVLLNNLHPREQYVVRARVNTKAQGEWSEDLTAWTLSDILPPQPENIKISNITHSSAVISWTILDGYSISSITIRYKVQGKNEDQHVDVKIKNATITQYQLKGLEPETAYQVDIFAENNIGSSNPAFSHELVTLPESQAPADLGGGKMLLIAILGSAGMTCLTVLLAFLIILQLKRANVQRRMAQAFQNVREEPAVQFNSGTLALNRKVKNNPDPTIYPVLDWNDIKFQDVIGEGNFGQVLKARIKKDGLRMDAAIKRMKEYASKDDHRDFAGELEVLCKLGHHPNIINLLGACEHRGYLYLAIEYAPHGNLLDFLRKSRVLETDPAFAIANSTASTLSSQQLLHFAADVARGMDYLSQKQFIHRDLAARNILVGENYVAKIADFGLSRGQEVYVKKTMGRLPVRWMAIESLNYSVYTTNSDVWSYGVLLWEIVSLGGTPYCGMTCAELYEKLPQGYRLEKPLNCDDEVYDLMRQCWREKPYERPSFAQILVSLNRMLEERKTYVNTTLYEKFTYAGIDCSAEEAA

For the compound `CC(C)(C)c1cc(NC(=O)Nc2cccc(C#Cc3ccc(N)nc3)c2)no1` [Example 2, N-{3-[(6-aminopyridin-3-yl)ethynyl]phenyl}-N′-(5-tert-butylisoxazol-3-yl)urea], the IC50 in experiment [1] was 2.6 µM; in experiment [2], 0.031 µM.
Taken in the same sequence, the figures for `CC(C)(C)c1cc(NC(=O)Nc2cccc(C#Cc3cnc(N)cn3)c2)no1` [Example 5, N-{3-[(5-aminopyrazin-2-yl)ethynyl]phenyl}-N′-(5-tert-butylisoxazol-3-yl)urea] were 4.4 µM and 0.02 µM.
Taken in the same sequence, the figures for `CC(C)(C)c1cc(NC(=O)Nc2cccc(C#Cc3cccnc3N)c2)no1` [Example 3, N-2{3-[(2-aminopyridin-3-yl)ethynyl]phenyl}-N′-(5-tert-butylisoxazol-3-yl)urea] were 8.2 µM and 0.077 µM.
